Data taken from patent publication US7304052B2, “Substituted homopiperidinyl benzimidazole analogues as fundic relaxants” (Janssen Pharmaceuitca N.V., priority 1999, dated 2007).

What follows are molecules tested on gastric tone (fundus of the stomach) (assay: Gastric tone measured by an electronic barostat in conscious dogs). Settings: mean maximal change in intragastric volume on relaxation of the fundus, 1 hour after S.C. administration, 0.63 mg/kg, conscious female beagle dogs, barostat at 2 mmHg.
Format: in vivo, dog
Method: Gastric tone cannot be measured by manometric methods. Therefore an electronic barostat was used. This allows the study of the physiological pattern and regulation of gastric tone in conscious dogs and the influence of test-compounds on this tone.
The barostat consists of an air injection system which is connected by a double-lumen 14-French polyvinyl tube to an ultrathin flaccid polyethylene bag (maximal volume: ±700 ml). Variations in gastric tone were measured by recording changes in the volume of air within an intragastric bag, maintained at a constant pressure. The barostat maintains a constant pressure (preselected) within a flaccid air-filled bag introduced into the stomach, changing the volume of air within the bag by an electronic feedback system.
Thus, the barostat measures gastric motor activity (contraction or relaxation) as changes in intragastric volume (decrease or increase resp.) at a constant intragastric pressure. The barostat consists of a strain gauge linked by an electronic relay to an air injection-aspiration system Both the strain gauge and the injection system are connected by means of double-lumen polyvinyl tube to an ultrathin polyethylene bag. A dial in the barostat allows selection of the pressure level to be maintained within the intragastric bag.
Female beagle dogs, weighing 7-17 kg, were trained to stand quietly in Pavlov frames. They were implanted with a gastric cannula under general anaesthesia and aseptic precautions. After a median laparotomy, an incision was made through the gastric wall in longitudinal direction between the greater and the lesser curve, 2 cm above the nerves of Latarjet. The cannula was secured to the gastric wall by means of a double purse string suture and brought out via a stub wound at the left quadrant of the hypochondrium Dogs were allowed a recovery period of two weeks.
At the beginning of the experiment, the cannula was opened in order to remove any gastric juice or food remnants. If necessary, the stomach was cleansed with 40 to 50 ml lukewarm water. […]

| SMILES | Maximum change in volume (mean) [mL] |
| --- | --- |
| c1ccc(CN2CCCC(c3nc4ncccc4[nH]3)CC2)cc1 (racemic) [Compound 69, (±)-2-[hexahydro-1-(phenylmethyl)-1H-azepin-4-yl]-1H-imidazo[4,5-b]pyridine] | 87 |
| c1ccc(CN2CCCC(c3nc4ncccc4[nH]3)CC2)cc1 (single isomer, unassigned; (-)) [Compound 80, (−)-2-[hexahydro-1-(phenylmethyl)-1H-azepin-4-yl]-1H-imidazo[4,5-b]pyridine] | 55 |
| c1ccc(CN2CCCC(c3nc4ncccc4[nH]3)CC2)cc1 (single isomer, unassigned; (+)) [Compound 81, (+)-2-[hexahydro-1-(phenylmethyl)-1H-azepin-4-yl]-1H-imidazo[4,5-b]pyridine] | 183 |
